Target: unphosphorylated-BTK kinase domain (UP-BTK), GST-tagged human BTK (389-659aa) (Homo sapiens (Human), UniProt Q06187)
Test: BTK kinase Lanthascreen binding assay
Details: unphosphorylated-BTK kinase domain, 50 nM Tracer 236, 60 minutes; pIC50 = negative log of the IC50 in molar
Procedure, shortened: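 A fluorescent tracer is bound to unphosphorylated BTK; test compound is added to compete it off; the Lanthascreen signal is read and IC50 is fitted, then reported as its negative log in molar.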

Sequence of unphosphorylated-BTK kinase domain (UP-BTK), GST-tagged human BTK (389-659aa) (Q06187 389-659): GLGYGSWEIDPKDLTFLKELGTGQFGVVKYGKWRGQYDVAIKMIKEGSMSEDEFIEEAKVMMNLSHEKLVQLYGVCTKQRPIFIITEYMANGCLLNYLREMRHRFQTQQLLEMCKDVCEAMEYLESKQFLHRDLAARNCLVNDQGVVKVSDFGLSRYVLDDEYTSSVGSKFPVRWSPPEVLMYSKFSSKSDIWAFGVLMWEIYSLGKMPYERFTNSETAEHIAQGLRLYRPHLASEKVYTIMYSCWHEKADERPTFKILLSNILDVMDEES

Row | BTK_I_binding pIC50 | Structure (SMILES)
1 | 6.0 | C=CC(=O)N1CC[C@@H](NC(=O)c2sc3nccc4c3c2NC(=O)N4c2ccc(C)cc2C)C1 [Example 304, (R)—N-(1-Acryloylpyrrolidin-3-yl)-5-(2,4-dimethylphenyl)-4-oxo-4,5-dihydro-3H-1-thia-3,5,8-triazaacenaphthylene-2-carboxamide]
2 | 6.0 | Cc1cc(Oc2ccccc2)c(F)cc1N1C(=O)Nc2c(C(=O)N[C@@H]3CCCOC3)sc3nccc1c23 [Example 305, (R)-5-(5-Fluoro-2-methyl-4-phenoxyphenyl)-4-oxo-N-(tetrahydro-2H-pyran-3-yl)-4,5-dihydro-3H-1-thia-3,5,8-triazaacenaphthylene-2-carboxamide]
3 | 6.0 | Cc1cc(Oc2ccccn2)ccc1N1C(=O)Nc2c(C(=O)N[C@@H]3CCCN(C)C3)sc3nccc1c23 [Example 306, (R)-5-(2-Methyl-4-(pyridin-2-yloxy)phenyl)-N-(1-methylpiperidin-3-yl)-4-oxo-4,5-dihydro-3H-1-thia-3,5,8-triazaacenaphthylene-2-carboxamide]
4 | 6.0 | Cc1cc(Oc2ccccc2)c(F)cc1N1C(=O)Nc2c(C(=O)N[C@H]3CCCOC3)sc3nccc1c23 [Example 308, (S)-5-(5-Fluoro-2-methyl-4-phenoxyphenyl)-4-oxo-N-(tetrahydro-2H-pyran-3-yl)-4,5-dihydro-3H-1-thia-3,5,8-triazaacenaphthylene-2-carboxamide]
5 | 6.0 | Cc1cc(Oc2ccccc2)ccc1N1C(=O)Nc2c(C(=O)N[C@H]3CCCCN(Cc4ccccc4)C3=O)sc3nccc1c23 [Example 309, (S)—N-(1-Benzyl-2-oxoazepan-3-yl)-5-(2-methyl-4-phenoxyphenyl)-4-oxo-4,5-dihydro-3H-1-thia-3,5,8-triazaacenaphthylene-2-carboxamide]
6 | 6.0 | Cc1cc(Oc2ccccc2)ccc1N1C(=O)Nc2c(C(=O)NC[C@@H]3CCCCN3)sc3nccc1c23 [Example 310, (S)-5-(2-Methyl-4-phenoxyphenyl)-4-oxo-N-(piperidin-2-ylmethyl)-4,5-dihydro-3H-1-thia-3,5,8-triazaacenaphthylene-2-carboxamide]
7 | 5.9 | C=CC(=O)N1CC[C@@H](NC(=O)c2sc3nccc4c3c2NC(=O)N4c2ccc(Oc3ccccc3)nn2)C1 [Example 311, (R)—N-(1-Acryloylpyrrolidin-3-yl)-4-oxo-5-(6-phenoxypyridazin-3-yl)-4,5-dihydro-3H-1-thia-3,5,8-triazaacenaphthylene-2-carboxamide]
8 | 5.9 | CO[C@H]1C[C@@H](NC(=O)c2sc3nccc4c3c2NC(=O)N4c2ccc(Oc3ccccc3)cc2C)CN(C)C1 [Example 312, N-((3R,5S)-5-Methoxy-1-methylpiperidin-3-yl)-5-(2-methyl-4-phenoxyphenyl)-4-oxo-4,5-dihydro-3H-1-thia-3,5,8-triazaacenaphthylene-2-carboxamide]
9 | 5.9 | C=CC(=O)N1CC[C@@H](NC(=O)c2sc3nccc4c3c2NC(=O)N4c2ccccc2C)C1 [Example 314, (R)—N-(1-Acryloylpyrrolidin-3-yl)-4-oxo-5-(o-tolyl)-4,5-dihydro-3H-1-thia-3,5,8-triazaacenaphthylene-2-carboxamide]
10 | 6.9 | Cc1cc(Oc2ccccc2)ccc1N1C(=O)Nc2c(C(=O)NCC(=O)N3CCOCC3)sc3nccc1c23 [Example 315, 5-(2-Methyl-4-phenoxyphenyl)-N-(2-morpholino-2-oxoethyl)-4-oxo-4,5-dihydro-3H-1-thia-3,5,8-triazaacenaphthylene-2-carboxamide]
11 | 5.8 | Cc1cc(Oc2ccccc2)cc(C)c1N1C(=O)Nc2c(C(=O)N[C@@H]3CCCN(C)C3)sc3nccc1c23 [Example 317, (R)-5-(2,6-Dimethyl-4-phenoxyphenyl)-N-(1-methylpiperidin-3-yl)-4-oxo-4,5-dihydro-3H-1-thia-3,5,8-triazaacenaphthylene-2-carboxamide]
12 | 6.7 | CCN1CCC[C@@H](NC(=O)c2sc3nccc4c3c2NC(=O)N4c2ccc(Oc3ccccc3C(C)C)cc2C)C1 [Example 320, (R)—N-(1-Ethylpiperidin-3-yl)-5-(4-(2-isopropylphenoxy)-2-methylphenyl)-4-oxo-4,5-dihydro-3H-1-thia-3,5,8-triazaacenaphthylene-2-carboxamide]
13 | 5.7 | Cc1cc(OC2CC2)ccc1N1C(=O)Nc2c(C(=O)N[C@@H]3CCCN(C)C3)sc3nccc1c23 [Example 322, (R)-5-(4-Cyclopropoxy-2-methylphenyl)-N-(1-methylpiperidin-3-yl)-4-oxo-4,5-dihydro-3H-1-thia-3,5,8-triazaacenaphthylene-2-carboxamide]
14 | 5.7 | C=CC(=O)N1CC[C@@H](NC(=O)c2sc3nccc4c3c2NC(=O)N4c2ccc(Oc3ccccc3)cc2C(F)(F)F)C1 [Example 324, (R)—N-(1-Acryloylpyrrolidin-3-yl)-4-oxo-5-(4-phenoxy-2-(trifluoromethyl)phenyl)-4,5-dihydro-3H-1-thia-3,5,8-triazaacenaphthylene-2-carboxamide]
15 | 5.7 | Cc1cc(Oc2ccccc2C(N)=O)ccc1N1C(=O)Nc2c(C(=O)N[C@@H]3CCCN(C)C3)sc3nccc1c23 [Example 326, (R)-5-(4-(2-Carbamoylphenoxy)-2-methylphenyl)-N-(1-methylpiperidin-3-yl)-4-oxo-4,5-dihydro-3H-1-thia-3,5,8-triazaacenaphthylene-2-carboxamide]
16 | 5.7 | Cc1cnc2sc(C(=O)N[C@@H]3CCCNC3)c3c2c1N(c1ccc(Oc2ccccc2)cc1)C(=O)N3 [Example 328, (R)-6-Methyl-4-oxo-5-(4-phenoxyphenyl)-N-(piperidin-3-yl)-4,5-dihydro-3H-1-thia-3,5,8-triazaacenaphthylene-2-carboxamide]
17 | 5.6 | O=C(N[C@@H]1CCCNC1)c1sc2nccc3c2c1NC(=O)N3c1cc(Cl)cc(Cl)c1 [Example 330, (R)-5-(3,5-Dichlorophenyl)-4-oxo-N-(piperidin-3-yl)-4,5-dihydro-3H-1-thia-3,5,8-triazaacenaphthylene-2-carboxamide]
18 | 5.5 | Cc1cc(Oc2ccccc2)ccc1N1C(=O)Nc2c(C(=O)N(C)[C@@H]3CCNC3)sc3nccc1c23 [Example 331, (R)—N-Methyl-5-(2-methyl-4-phenoxyphenyl)-4-oxo-N-(pyrrolidin-3-yl)-4,5-dihydro-3H-1-thia-3,5,8-triazaacenaphthylene-2-carboxamide]
19 | 5.5 | Cc1cc(OC(C)C)ccc1N1C(=O)Nc2c(C(=O)N[C@@H]3CCCN(C)C3)sc3nccc1c23 [Example 332, (R)-5-(4-Isopropoxy-2-methylphenyl)-N-(1-methylpiperidin-3-yl)-4-oxo-4,5-dihydro-3H-1-thia-3,5,8-triazaacenaphthylene-2-carboxamide]
20 | 5.5 | CCOc1ccc(N2C(=O)Nc3c(C(=O)N[C@@H]4CCCN(C)C4)sc4nccc2c34)c(C)c1 [Example 333, (R)-5-(4-Ethoxy-2-methylphenyl)-N-(1-methylpiperidin-3-yl)-4-oxo-4,5-dihydro-3H-1-thia-3,5,8-triazaacenaphthylene-2-carboxamide]
21 | 5.5 | C=CC(=O)N1CCC[C@@H](NC(=O)c2sc3nccc4c3c2NC(=O)N4c2ccc(C(C)(C)C)cc2)C1 [Example 334, (R)—N-(1-Acryloylpiperidin-3-yl)-5-(4-(tert-butyl)phenyl)-4-oxo-4,5-dihydro-3H-1-thia-3,5,8-triazaacenaphthylene-2-carboxamide]
22 | 5.4 | O=C(N[C@@H]1CCCNC1)c1sc2nccc3c2c1NC(=O)N3c1cccc(Cl)c1 [Example 336, (R)-5-(3-Chlorophenyl)-4-oxo-N-(piperidin-3-yl)-4,5-dihydro-3H-1-thia-3,5,8-triazaacenaphthylene-2-carboxamide]
23 | 5.4 | C=CC(=O)N1CC[C@@H](NC(=O)c2sc3nccc4c3c2NC(=O)N4c2ccccc2)C1 [Example 337, (R)—N-(1-Acryloylpyrrolidin-3-yl)-4-oxo-5-phenyl-4,5-dihydro-3H-1-thia-3,5,8-triazaacenaphthylene-2-carboxamide]
24 | 5.4 | Cc1cc(Oc2ccccc2)ccc1N1C(=O)Nc2c(C(=O)N(C)[C@@H]3CCN(C)C3)sc3nccc1c23 [Example 338, (R)—N-Methyl-5-(2-methyl-4-phenoxyphenyl)-N-(1-methylpyrrolidin-3-yl)-4-oxo-4,5-dihydro-3H-1-thia-3,5,8-triazaacenaphthylene-2-carboxamide]
25 | 5.3 | COc1ccc(N2C(=O)Nc3c(C(=O)N[C@@H]4CCCN(C)C4)sc4nccc2c34)c(C)c1 [Example 340, (R)-5-(4-Methoxy-2-methylphenyl)-N-(1-methylpiperidin-3-yl)-4-oxo-4,5-dihydro-3H-1-thia-3,5,8-triazaacenaphthylene-2-carboxamide]
26 | 5.2 | O=C(N[C@@H]1CCCNC1)c1sc2nccc3c2c1NC(=O)N3c1ccc(C(F)(F)F)cc1 [Example 341, (R)-4-Oxo-N-(piperidin-3-yl)-5-(4-(trifluoromethyl)phenyl)-4,5-dihydro-3H-1-thia-3,5,8-triazaacenaphthylene-2-carboxamide]
27 | 5.2 | COc1ccc(N2C(=O)Nc3c(C(=O)N[C@@H]4CCCNC4)sc4nccc2c34)cc1 [Example 342, (R)-5-(4-Methoxyphenyl)-4-oxo-N-(piperidin-3-yl)-4,5-dihydro-3H-1-thia-3,5,8-triazaacenaphthylene-2-carboxamide]
28 | 5.0 | O=C(N[C@@H]1CCCNC1)c1sc2nccc3c2c1NC(=O)N3c1ccc(-c2ccccc2)cc1 [Example 344, (R)-5-([1,1′-Biphenyl]-4-yl)-4-oxo-N-(piperidin-3-yl)-4,5-dihydro-3H-1-thia-3,5,8-triazaacenaphthylene-2-carboxamide]
29 | <5 | O=C(N[C@@H]1CCCNC1)c1sc2nccc3c2c1NC(=O)N3c1ccc(Cl)c(Cl)c1 [Example 346, (R)-5-(3,4-Dichlorophenyl)-4-oxo-N-(piperidin-3-yl)-4,5-dihydro-3H-1-thia-3,5,8-triazaacenaphthylene-2-carboxamide]

From patent US10800792B2, “Inhibitors of Bruton's tyrosine kinase and method of their use” (JANSSEN PHARMACEUTICA NV, priority 2015, dated 2020)
